For 115 compounds, EC50 results are on record in PubChem BioAssay AID1241 (SRMLSC, 2008).

As usually defined, the EC50 is the concentration giving half of the maximal effect.

The nature of the assay: compounds inducing NF-kB luciferase expression – cell-based, SH-SY5Y, dose response (AID 1241). As to conditions: SH-SY5Y NF-kB promoter luciferase reporter, fold induction. For orientation: In a reporter assay the amount or activity of a reporter protein is the signal.
With `Cc1ccc2nc(-c3ccc(NC(=O)CNC4CC4)cc3)sc2c1`, the EC50 was 1690 nM. Next, `O=C(Oc1c(CN2CCOCC2)cc(Cl)c2cccnc12)c1ccc(F)cc1`: 13100 nM.

For the compound `Fc1ccccc1/C=C/c1ccc2ccccc2n1`, the EC50 is 319 nM.

`COc1ccc(/C=C/c2nc3ccccc3n2Cc2ccc(OC)c(OC)c2)cc1`: the EC50 is 943 nM. For `Fc1ccccc1OCCSc1nnnn1-c1ccccc1`, the EC50 was 1240 nM. Next, `c1ccc(CCNc2ncnc3c2cnn3-c2ccccc2)cc1`: 27400 nM; `CCOC(=O)c1c(N)sc(C(=O)Nc2ccccc2)c1C`: 1930 nM; `NC(=O)c1ccccc1N/C=C/C(=O)c1ccc(Cl)cc1Cl`: 1250 nM.

Turning to `O=C(/C=C/c1ccccc1Cl)c1ccccc(=O)c1O`, the EC50 is 8070 nM. For `CC(C)c1ccc(NC(=O)NC2CCCCC2)cc1`, the EC50 was 8150 nM.

On to `Cc1ccc(-c2cc(-c3cccs3)[nH]n2)c(O)c1`, for which the EC50 was 13100 nM. As for `COc1ccc(-c2cc(-c3cc(C)ccc3O)[nH]n2)cc1`, the EC50 is 16000 nM. Take `CN(C)c1ccc(/C=N/NC(=O)c2ccco2)cc1`: the EC50 was 18200 nM. Next, `Cc1ccc(Nc2nc3ccccc3s2)c(C)c1`: 874 nM; `Cc1ccc(NC(=O)/C(Cl)=C/c2ccccc2)cc1C`: 2960 nM. To `COc1cccc(N/C=C/C(=O)c2ccc(Cl)cc2)c1` belongs 652 nM; to `N#C/C(=N\Nc1ccc(Cl)cc1)C(=N)N1CCCCC1`, 1720 nM. To `Clc1ccc(-c2nnc(SCc3ccon3)o2)c(Cl)c1` belongs 1060 nM; to `O=C(NC1=NCCS1)c1csc2ccccc12`, 17300 nM; to `c1cnc(SCCOc2ccc3c(c2)CCC3)nc1`, 8800 nM. For `COc1ccc(C(=O)Nc2ccc3c(c2)OCCO3)cc1`, the EC50 is 1350 nM. To `Cc1ccc(NC(=O)COc2ccccc2C=O)cc1Cl` belongs 3880 nM; to `O=C1c2ccccc2NC(c2cnc3ccccc3n2)N1O` (stereo not given), 903 nM. On to `Cc1ccc(OCc2nc(-c3cccs3)no2)c([N+](=O)[O-])c1`, for which the EC50 is 769 nM.

For `C/C(=N\Nc1nc2ccccc2[nH]1)c1cccs1`, the EC50 was 2800 nM.

As to `CC(=Nc1cccc(O)c1)c1sc2ccccc2c1O`, the EC50 was 2200 nM. Turning to `CCc1ccc(C(=O)COC(=O)c2n[nH]c3ccccc23)cc1`, the EC50 is 2540 nM. To `O/C(=C\c1ccc2ccccc2n1)c1ccc(O)cc1O` belongs 954 nM.

`COc1cccc(C(=O)/C=C/Nc2cccc(O)c2)c1`: the EC50 was 1290 nM. Next, `O=C(Nc1ccc2sc3ccccc3c(=O)c2c1)c1ccccc1Cl`: 7040 nM. To `COc1cc(SC)ccc1C(=O)Nc1ccc(C)cc1` belongs 3050 nM. Next, `CCOC(=O)/C(=C\c1ccccc1)C(=O)c1cc(C(C)=O)c(Nc2ccccc2)s1`: 17400 nM; `Cc1ccc(O)c(NC(=O)c2noc3c2CCCCC3)c1`: 9290 nM; `Cc1cc(N)n2nc(-c3ccccc3)cc2n1`: 10000 nM. For the compound `Cc1ccsc1/C=N/Nc1cccc(C(=O)O)c1`, the EC50 was 1050 nM.

Turning to `COC(=O)Cc1ccc2sc(-c3ccccc3)nc2c1`, the EC50 is 702 nM. To `Cc1ccccc1Nc1nc(N)c2ccccc2n1` belongs 1990 nM; to `COc1ccc2nc(NC(=O)c3ccoc3C)sc2c1`, 3990 nM; to `N#CC1(c2ccc(NC(=O)c3ccccc3F)cc2)CCCC1`, 1080 nM. Next, `O=[N+]([O-])c1ccc(C2Oc3ccccc3C3CC(c4ccccc4)=NN32)s1` (stereo not given): 12200 nM. For the compound `CN(c1ccc(O)cc1)c1nc(-c2cccs2)cs1`, the EC50 was 3860 nM. In the case of `NC(=O)c1ccccc1N/C=C/C(=O)c1ccccc1`, the EC50 is 1040 nM. To `O=C(Cc1nc(=O)c2ccccc2s1)Nc1ccccc1` belongs 220 nM; to `N/C(=N\OC(=O)c1cccc(Br)c1)c1ccccc1`, 23200 nM. To `Brc1ccc(-c2ncc(-c3ccccc3)cn2)cc1` belongs 3870 nM; to `COc1ccc(C(=O)NCCSc2ccccc2)cc1`, 956 nM; to `O=C(Nc1nc2ccccc2[nH]1)c1cc2ccccc2o1`, 1230 nM. Next, `O=C(/C=C/c1cccs1)N1CCc2ccccc21`: 356 nM. `CNC(=O)Oc1cccc(-c2cn3cc(Cl)ccc3n2)c1`: the EC50 is 1260 nM.

With `Cc1nnc(SCc2cnc(-c3ccc(C(C)C)cc3)s2)n1C`, the EC50 was 4570 nM.

In the case of `Fc1c(F)c(F)c(N/N=C/c2c[nH]c3ccccc23)c(F)c1F`, the EC50 was 3860 nM. In the case of `Cc1ccc(-c2noc(-c3cccs3)n2)cc1`, the concentration for a half-maximal effect (EC50) is 2290 nM. To `O=C(NC(=S)Nc1ccc2c(c1)OCCO2)c1ccccc1F` belongs 1740 nM. `CC(=Nc1ccccc1)c1sc2ccccc2c1O`: the EC50 was 6490 nM. To `CCCCc1ccc(-c2ccc(C)cc2O)nc1` belongs 3250 nM. Next, `CC(C)c1cc(C(=O)Nc2cccc(Cl)c2)no1`: 2420 nM; `OCc1cn(-c2ccccc2)nc1-c1cc2ccccc2o1`: 6680 nM. To `Cc1ccc(NC(=O)N2CCc3ccccc32)cc1` belongs 763 nM; to `CC(C)c1oc(=O)cc2c1[C@@H](O)[C@H]1OC(=O)[C@@]3(C)C[C@@H](O)[C@@H](O)[C@@]2(C)C13` (stereo not given in full), 4450 nM; to `O=C(Nc1ccc2c(c1)CCC2)c1cc2ccccc2o1`, 2410 nM. With `O=C(c1cnn(-c2ccccc2)c1)c1ccccc1O`, the EC50 was 1700 nM. To `CN(c1ccccc1)c1ccc(/C=N/N2CCOCC2)cc1` belongs 6770 nM; to `CCOC(=O)c1cnc2c(-c3ccccc3)cnn2c1C`, 7520 nM. Next, `COc1cccc([C@@H]2Oc3ccc(OC)cc3C(=O)[C@H]2O)c1`: 5860 nM; `Fc1ccccc1CSc1nc2ccccc2[nH]1`: 3190 nM; `O=C(O)c1cccc(COc2ccccc2Cl)c1`: 1350 nM. To `Oc1ccc(-c2csc(Nc3ncccn3)n2)c(O)c1` belongs 945 nM; to `O=C(/C=C/c1ccco1)N1CCc2ccccc21`, 1040 nM.

With `CCn1cnc2cc(NCc3nc4ccccc4n3C)ccc21`, the EC50 was 1420 nM. Next, `CCOC(=O)c1sc2nc3c(cc2c1N)COC(C)(CC)C3` (stereo not given): 1450 nM; `COc1ccc(/C=N/Nc2cc(OC)ncn2)cc1`: 341 nM. `Cc1ccc(/C=N/Nc2cccc(C(=O)O)c2)s1`: the EC50 was 2120 nM. Next, `c1ccc(-c2noc(-c3cccc4ccccc34)n2)cc1`: 15600 nM. To `O=C(Nc1ccc(Cl)cc1)N1CCC(c2ccccc2)C1` (stereo not given) belongs 10600 nM. Regarding `Cc1ccc(-c2cc(-c3cccc(F)c3)n[nH]2)c(O)c1`, the EC50 was 4400 nM. To `Fc1cccc(F)c1CSc1nc2ccccc2[nH]1` belongs 4340 nM; to `CCSc1ccc(-c2ccc(C)cc2)nn1`, 690 nM; to `COc1ccc2[nH]c3c(c2c1)CCn1c-3nc2ccccc2c1=O`, 185 nM.

Turning to `COc1ccc2nc(SCc3ccccc3)nc(C)c2c1`, the EC50 was 6570 nM. Next, `Cc1ccc(-c2nc3ccccc3[nH]2)cc1N`: 3410 nM; `CCOc1ccc2nc(C(=O)N3CCCC(C)C3)sc2c1` (stereo not given): 3300 nM. To `Cc1ccsc1/C=N/Nc1nc2ccccc2s1` belongs 803 nM; to `O=C(/C=C/Nc1ccccc1F)c1cccs1`, 413 nM.

For the compound `CCCCOC(=O)Nc1ccc(N2CCCCC2)cc1`, the EC50 was 20500 nM. To `O=C(CSc1cccc[n+]1[O-])c1cc(Cl)ccc1Cl` belongs 1950 nM; to `CCCCc1ccc(-c2ccc(Br)cc2)nc1`, 16300 nM. Next, `CN=c1scc(C)n1/N=C/c1ccc2c(c1)OCO2`: 129 nM; `CCOC(=O)Cc1ccc2sc(-c3ccccc3)nc2c1`: 6450 nM. To `COc1cc(/C=N/O)ccc1OCc1ccccc1Cl` belongs 12100 nM; to `CCOC(=O)c1c(N)sc(C(=O)Nc2ccccc2F)c1C`, 1920 nM; to `O=C(Nc1ccc(Cl)cn1)c1cc2ccccc2o1`, 2430 nM. For the compound `O=C(Nc1nc2ccc(Cl)cc2s1)c1ccco1`, the EC50 is 1190 nM. Next, `O=C(CCCc1ccccc1)Nc1ccc2c(c1)OCCO2`: 1500 nM.

Turning to `COc1ccc(C(=O)N=c2sc3ccccc3n2C)cc1`, the EC50 is 6410 nM. To `Cc1cccc(Nc2nc(-c3cccs3)cs2)n1` belongs 1220 nM.

As for `Nc1ccc(O)cc1C(=O)OCC(=O)c1ccc(C2CCCCC2)cc1`, the EC50 is 3910 nM. As for `COc1ccc(CSc2nc3ccccc3[nH]2)cc1`, the EC50 was 4290 nM. As for `COc1cccc(-c2nc3ccccc3s2)c1`, the EC50 is 10900 nM. To `Oc1c(C2=NCCNC(C(F)(F)F)=C2)ccc2ccccc12` belongs 17700 nM; to `C(=N\Nc1nc(-c2ccccc2)cs1)/c1cccs1`, 5970 nM. Next, `CCCC(=O)Nc1ccc(C(=O)N/N=C/c2ccc[nH]2)cc1`: 2990 nM; `CC(C)CC(=O)N/C(N)=N/c1nc2ccccc2s1`: 762 nM. To `O=C(Nc1nc2c(s1)CCCC2)c1ccc(Br)o1` belongs 1290 nM; to `O=C(N/N=C/C(Br)=C/c1ccccc1)c1cccs1`, 18200 nM; to `Cc1ccc2nc(NC(=O)c3cccs3)sc2c1`, 389 nM. As for `Nc1nc(-c2cccnc2)nc2sc3c(c12)CCCC3`, the EC50 is 6840 nM. Next, `COCCNC(=O)/C(C#N)=C/c1cc(C)n(-c2ccc(C)cc2)c1C`: 5600 nM; `C(=N\NC1=Nc2cccc3cccc1c23)/c1ccccn1`: 7600 nM. To `COc1ccc2c(c1)CC/C2=N\OC(=O)c1ccccc1C` belongs 1970 nM; to `O=C1C(C=Nc2ccc(F)cc2)=C(O)c2ccccc21`, 2410 nM. As to `Cc1ccc(/C=N/Nc2nnc(Cl)c3ccccc23)cc1`, the EC50 was 1530 nM. Next, `O=C(/C=C/c1ccc(Cl)cc1)Nc1nccs1`: 793 nM; `CCc1ccc2oc(-c3ccc(N)cc3)nc2c1`: 342 nM.

As to `O=C(Nc1nccs1)c1ccc(-c2ccc(Cl)cc2)o1`, the EC50 was 27600 nM. Regarding `c1ccc2oc(-c3csc(N4CCOCC4)n3)cc2c1`, the concentration for a half-maximal effect (EC50) is 966 nM.
